Activity calls are given as the source filed them. The calls are words filed in the database; no cut-off is given here.
Tests used:
[1] = target: Mast/stem cell growth factor receptor Kit (Homo sapiens) (UniProt P10721); assay: Inhibition of c-Kit in human PANC1 cells assessed as reduction in Erk phosphorylation at 50 uM; assay type: cell-based
HT-29 [2] = assay: Suppression of ionizing radiation-induced Rad51 expression in human HT-29 cells pretreated with compound followed by ionizing radiation by Western blot analysis; assay type: functional, cell-based
A549 [3] = assay: Antitumor activity against human A549 cells xenografted in athymic nude mouse assessed as reduction in tumor growth at 50 mg/kg, po qd administered for 21 days in presence of 30 mg/kg carboplatin; assay type: functional, organism-based
MIA PaCa-2 [4] = assay: Antitumor activity against human MIAPaCa2 cells xenografted in athymic nude mouse assessed as reduction in tumor growth at 5 mg/kg, iv administered every 7 days for 28 days; assay type: functional, organism-based
OVCAR-3 [5] = assay: Antitumor activity against human OVCAR3 cells xenografted in po dosed athymic nude mouse assessed as reduction in tumor growth administered as qd for 28 days; assay type: functional, organism-based
TT = assay: Antitumor activity against human TT cells xenografted in ip dosed athymic nude mouse assessed as reduction in tumor growth administered as qd for 2 weeks; assay type: functional, organism-based
HT-29 [6] = assay: Suppression of cisplatin-induced Rad51 expression in human HT-29 cells xenografted in in-vivo model by Western blot analysis; assay type: functional, cell-based
Canis familiaris = assay: In vivo inhibition of Rad51 expression in po dosed Beagle dog skin administered daily for 28 days measured post last dose by immunohistochemistry staining based assay; assay type: functional, organism-based; details: Canis lupus familiaris
MIA PaCa-2 [7] = assay: Antitumor activity against human MIAPaCa2 cells xenografted in athymic nude mouse assessed as reduction in tumor growth at 2.5 to 5 mg/kg, iv administered every 3 days for 28 days; assay type: functional, organism-based
SF-767 [8] = assay: Cytotoxicity against human SF-767 cells assessed as cell death at 1 uM in presence of […] ionizing radiation after 24 hrs by MTS assay; assay type: functional, cell-based
A549 [9] = assay: Antitumor activity against human A549 cells xenografted in athymic nude mouse assessed as reduction in tumor growth at 50 mg/kg, po qd administered for 21 days in presence of 30 mg/kg carboplatin/ 20 mg/kg taxol; assay type: functional, organism-based
SBcl2 = assay: Antitumor activity against human SBcl2 cells xenografted in ip dosed athymic nude mouse assessed as reduction in tumor growth administered as qd for 5 days; assay type: functional, organism-based
SF-767 [10] = assay: Cytotoxicity against human SF-767 cells assessed as cell death at 1 uM after 24 hrs by MTS assay; assay type: functional, cell-based
OVCAR-3 [11] = assay: Cytostatic activity against human OVCAR3 cells assessed as reduction in cell proliferation; assay type: functional, cell-based
A549 [12] = assay: Suppression of Rad51 expression in human A549 cells at 0.71 to 3.82 uM after 24 hrs by probing blot analysis; assay type: functional, cell-based

Mast/stem cell growth factor receptor Kit (Homo sapiens), sequence (P10721 whole entry): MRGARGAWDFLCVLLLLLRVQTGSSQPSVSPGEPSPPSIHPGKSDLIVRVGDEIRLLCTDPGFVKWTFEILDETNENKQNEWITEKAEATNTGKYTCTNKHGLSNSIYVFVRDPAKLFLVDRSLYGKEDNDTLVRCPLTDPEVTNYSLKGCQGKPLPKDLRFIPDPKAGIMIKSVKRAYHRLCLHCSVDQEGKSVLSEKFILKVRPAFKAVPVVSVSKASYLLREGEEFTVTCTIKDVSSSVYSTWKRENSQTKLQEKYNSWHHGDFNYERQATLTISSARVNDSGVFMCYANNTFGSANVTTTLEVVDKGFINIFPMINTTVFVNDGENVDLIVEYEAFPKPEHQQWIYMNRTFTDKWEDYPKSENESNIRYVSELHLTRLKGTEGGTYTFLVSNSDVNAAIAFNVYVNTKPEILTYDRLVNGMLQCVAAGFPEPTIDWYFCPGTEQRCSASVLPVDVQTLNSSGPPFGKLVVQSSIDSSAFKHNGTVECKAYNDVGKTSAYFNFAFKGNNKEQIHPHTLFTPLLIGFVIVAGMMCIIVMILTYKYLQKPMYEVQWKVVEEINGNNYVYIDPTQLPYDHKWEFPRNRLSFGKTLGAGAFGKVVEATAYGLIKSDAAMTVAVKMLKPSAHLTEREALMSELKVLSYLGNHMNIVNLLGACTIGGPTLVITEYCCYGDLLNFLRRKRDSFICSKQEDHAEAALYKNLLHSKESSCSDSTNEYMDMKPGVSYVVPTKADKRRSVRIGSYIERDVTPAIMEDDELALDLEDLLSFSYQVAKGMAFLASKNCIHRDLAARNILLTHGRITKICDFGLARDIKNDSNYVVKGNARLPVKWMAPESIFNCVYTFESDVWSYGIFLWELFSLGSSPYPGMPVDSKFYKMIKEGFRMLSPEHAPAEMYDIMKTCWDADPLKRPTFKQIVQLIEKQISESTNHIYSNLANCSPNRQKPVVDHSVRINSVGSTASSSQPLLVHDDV

Which inhibition [1] does the source give for `COc1cccc(-c2cc(=O)c3ccccc3o2)c1N` here?
Its inhibition is “Active”.

What does the source list for `S=C(NCc1ccc2c(c1)OCO2)N1CCN(c2ncnc3c2oc2ccccc23)CC1`?
inhibition (HT-29 [2]): Active; Activity (A549 [3]): Active; Activity (MIA PaCa-2 [4]): Active; Activity (OVCAR-3 [5]): Dose-dependent effect; Activity (TT): Dose-dependent effect; inhibition (HT-29 [6]): Active; inhibition (Canis familiaris): Dose-dependent effect; Activity (MIA PaCa-2 [7]): Active; Activity (SF-767 [8]): Active; Activity (A549 [9]): Active; Activity (SBcl2): Active; Activity (SF-767 [10]): Active; Activity (OVCAR-3 [11]): Active; Activity (A549 [12]): inactive; inhibition [1]: Active

Source: ChEMBL document CHEMBL3991943, “Pharmaceutical formulations comprising salts of a protein kinase inhibitor and methods of using same” (2013)
